From patent US20240317735A1, “HYDROISOQUINOLINE OR HYDRONAPHTHYRIDINE COMPOUNDS FOR THE TREATMENT OF AUTOIMMUNE DISEASE” (Hoffmann-La Roche Inc., priority 2020, published 2024)

Target: T1, TLR9 (Homo sapiens, UniProt Q9NR96)
T1 sequence (Q9NR96 26-1032): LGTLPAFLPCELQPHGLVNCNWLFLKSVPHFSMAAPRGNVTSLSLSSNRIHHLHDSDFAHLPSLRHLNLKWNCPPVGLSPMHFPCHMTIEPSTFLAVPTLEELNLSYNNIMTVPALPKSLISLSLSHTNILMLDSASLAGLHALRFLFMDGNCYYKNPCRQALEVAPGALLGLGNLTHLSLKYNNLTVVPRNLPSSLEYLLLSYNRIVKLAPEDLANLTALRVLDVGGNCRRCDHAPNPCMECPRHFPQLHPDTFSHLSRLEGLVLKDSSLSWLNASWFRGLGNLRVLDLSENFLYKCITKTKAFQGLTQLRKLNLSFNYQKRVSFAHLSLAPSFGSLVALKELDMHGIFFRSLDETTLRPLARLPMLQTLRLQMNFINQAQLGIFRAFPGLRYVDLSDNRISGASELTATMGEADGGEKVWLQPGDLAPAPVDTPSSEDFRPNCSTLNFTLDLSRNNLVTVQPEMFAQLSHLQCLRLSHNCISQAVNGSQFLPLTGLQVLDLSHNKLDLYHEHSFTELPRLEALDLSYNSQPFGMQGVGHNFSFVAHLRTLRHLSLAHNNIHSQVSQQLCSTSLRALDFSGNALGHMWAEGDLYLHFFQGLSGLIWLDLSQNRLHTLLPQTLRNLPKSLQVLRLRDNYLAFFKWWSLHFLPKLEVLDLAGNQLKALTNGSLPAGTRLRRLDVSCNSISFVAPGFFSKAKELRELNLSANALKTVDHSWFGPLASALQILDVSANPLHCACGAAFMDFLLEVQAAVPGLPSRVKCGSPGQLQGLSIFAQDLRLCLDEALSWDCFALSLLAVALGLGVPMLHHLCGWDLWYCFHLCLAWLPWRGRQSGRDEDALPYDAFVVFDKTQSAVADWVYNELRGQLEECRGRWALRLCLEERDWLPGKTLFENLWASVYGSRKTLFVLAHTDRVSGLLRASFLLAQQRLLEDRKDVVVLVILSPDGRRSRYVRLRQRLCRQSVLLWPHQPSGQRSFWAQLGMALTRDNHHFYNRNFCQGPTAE
Assay: HEK293-Blue-hTLR-9 cells assay (SEAP reporter, ODN2006 stimulation)
Type: cell-based
Set-up: host or cells: HEK293 (HEK-Blue hTLR9)
Conditions: HEK293-Blue-hTLR9 cells, ODN2006, 20 hrs; read-out: HEK/hTLR9 IC50
Protocol: The following tests were carried out in order to determine the activity of the compounds of formula (I) and (Ia) in HEK293-Blue-hTLR-7/8/9 cells assay.
A stable HEK293-Blue-hTLR-9 cell line was purchased from InvivoGen (Cat. #: hkb-htlr9, San Diego, California, USA). These cells were originally designed for studying the stimulation of human TLR9 by monitoring the activation of NF-κB. A SEAP (secreted embryonic alkaline phosphatase) reporter gene was placed under the control of the IFN-β minimal promoter fused to five NF-κB and AP-1-binding sites. The SEAP was induced by activating NF-κB and AP-1 via stimulating HEK-Blue hTLR9 cells with TLR9 ligands. Therefore the reporter expression was declined by TLR9 antagonist under the stimulation of a ligand, such as ODN2006 (Cat. #: tlrl-2006-1, Invivogen, San Diego, California, USA), for incubation of 20 hrs. The cell culture supernatant SEAP reporter activity was determined using QUANTI-Blue™ kit (Cat. #: rep-qb1, Invivogen, San Diego, California, USA) at a wavelength of 640 nm, a detection medium that turns purple or blue in the presence of alkaline phosphatase.
HEK293-Blue-hTLR9 cells were incubated at a density of 250,000-450,000 cells/mL in a volume of 170 μL in a 96-well plate in Dulbecco's Modified Eagle's medium (DMEM) containing 4.5 g/L glucose, 50 U/mL penicillin, […], […], 2 mM L-glutamine, 10% (v/v) heat-inactivated fetal bovine serum with addition of 20 μL test compound in a serial dilution in the presence of final DMSO at 1% and 10 μL of 20 uM ODN2006 in above DMEM, perform incubation under 37° C. in a CO2 incubator for 20 hrs. Then 20 μL of the supernatant from each well was incubated with 180 μL Quanti-blue substrate solution at 37° C. for 2 h and the absorbance was read at 620˜655 nm using a spectrophotometer.
The signaling pathway that TLR9 activation leads to downstream NF-κB activation has been widely accepted, and therefore similar reporter assay was modified for evaluating TLR9 antagonist.

Going from `COC[C@H]1CN(c2cc3c(cn2)CN(c2cc(C)nc4c2cnn4C)C[C@@H]3C)CCN1` [Example 81, (4R)-2-(1,6-dimethylpyrazolo[3,4-b]pyridin-4-yl)-4-methyl-6-[(3R)-3-(methoxymethyl)piperazin-1-yl]-3,4-dihydro-1H-2,7-naphthyridine] to `Cc1cc(N2Cc3cnc(N4CCNC5(CC5)C4)cc3[C@@H](C)C2)c2cnn(C)c2n1` [Example 75, (4R)-6-(4,7-diazaspiro[2.5]octan-7-yl)-2-(1,6-dimethylpyrazolo[3,4-b]pyridin-4-yl)-4-methyl-3,4-dihydro-1H-2,7-naphthyridine], the IC50 falls from 218 nM to 115 nM (1.9-fold).

Compared with `Cc1cc(N2Cc3ccc(N4CCN(C)CC4)nc3[C@@H](C)C2)c2cnn(C)c2n1` [Example 67, (8S)-6-(1,6-dimethylpyrazolo[3,4-b]pyridin-4-yl)-8-methyl-2-(4-methylpiperazin-1-yl)-7,8-dihydro-5H-1,6-naphthyridine], `Cc1cc(N2Cc3ccc(N4CCNCC4)nc3[C@@H](C)C2)c2cnn(C)c2n1` [Example 66, (8S)-6-(1,6-dimethylpyrazolo[3,4-b]pyridin-4-yl)-8-methyl-2-piperazin-1-yl-7,8-dihydro-5H-1,6-naphthyridine] is 2.1-fold lower in IC50: 282 nM for the first, 132 nM for the second.

`Cc1cc(N2Cc3ccc(N4CCC(O)(CN(C)C)CC4)nc3[C@@H](C)C2)c2cnn(C)c2n1` [Example 61, 4-[(dimethylamino)methyl]-1-[(8S)-6-(1,6-dimethylpyrazolo[3,4-b]pyridin-4-yl)-8-methyl-7,8-dihydro-5H-1,6-naphthyridin-2-yl]piperidin-4-ol] and `Cc1cc(N2Cc3ccc(N4CCC(N(C)C)CC4)nc3[C@@H](C)C2)c2cnn(C)c2n1` [Example 60, N,N-dimethyl-1-[(8S)-6-(1,6-dimethylpyrazolo[3,4-b]pyridin-4-yl)-8-methyl-7,8-dihydro-5H-1,6-naphthyridin-2-yl]piperidin-4-amine] are within 1.5-fold of each other in IC50: 129 nM for the first, 104 nM for the second.

Compared with `Cc1cc(N2Cc3ccc(N4C[C@@H](F)[C@@H](N)C4)nc3[C@@H](C)C2)c2cnn(C)c2n1` [Example 69, (3S,4R)-4-fluoro-1-[(8S)-6-(1,6-dimethylpyrazolo[3,4-b]pyridin-4-yl)-8-methyl-7,8-dihydro-5H-1,6-naphthyridin-2-yl]pyrrolidin-3-amine], `CO[C@H]1CN(c2ccc3c(n2)[C@@H](C)CN(c2cc(C)nc4c2cnn4C)C3)CC[C@@H]1N` [Example 65, (3S,4S)-3-methoxy-1-[(8S)-6-(1,6-dimethylpyrazolo[3,4-b]pyridin-4-yl)-8-methyl-7,8-dihydro-5H-1,6-naphthyridin-2-yl]piperidin-4-amine] is 4.6-fold lower in IC50: 488 nM for the first, 106 nM for the second. The second is the more potent here.

Going from `C[C@H]1CN(c2ccnc3c2cnn3C)Cc2ccc(N3CCN(c4cc5c(cn4)CCNC5)CC3)cc21` [Example 9, 7-[4-[(4R)-4-methyl-2-(1-methylpyrazolo[3,4-b]pyridin-4-yl)-3,4-dihydro-1H-isoquinolin-6-yl]piperazin-1-yl]-1,2,3,4-tetrahydro-2,6-naphthyridine] to `C[C@H]1CN(c2ccnc3c2cnn3C)Cc2ccc(N3CCC(N4CCNCC4)CC3)cc21` [Example 10, (4R)-4-methyl-2-(1-methylpyrazolo[3,4-b]pyridin-4-yl)-6-(4-piperazin-1-yl-1-piperidyl)-3,4-dihydro-1H-isoquinoline], the IC50 falls from 117 nM to 58 nM (2-fold). The second is the more potent here.

`C[C@H]1CN(c2ccnc3c2cnn3C)Cc2ccc(N3C[C@@H]4CCNC[C@@H]4C3=O)cc21` (single isomer, unassigned) [Example 57] and `C[C@H]1CN(c2ccnc3c2cnn3C)Cc2ccc(N3CC4CNC[C@H]4C3=O)cc21` (relative stereo) [Example 17, cis-5-[(4R)-4-methyl-2-(1-methylpyrazolo[3,4-b]pyridin-4-yl)-3,4-dihydro-1H-isoquinolin-6-yl]-1,2,3,3a,6,6a-hexahydropyrrolo[3,4-c]pyrrol-4-one] are within 1.5-fold of each other in IC50: 226 nM for the first, 217 nM for the second.

First: Cc1cc(N2Cc3ccc(N4CCC5(CCNCC5)CC4)cc3C(C)C2)c2cnn(C)c2n1 (stereo not shown) [Example 5, 3-[2-(1,6-dimethylpyrazolo[3,4-b]pyridin-4-yl)-4-methyl-3,4-dihydro-1H-isoquinolin-6-yl]-3,9-diazaspiro[5.5]undecane]
Second: C[C@H]1CN(c2ccnc3c2cnn3C)Cc2ccc(N3CC4(CCNCC4)OC3=O)cc21 [Example 26, 3-[(4R)-4-methyl-2-(1-methylpyrazolo[3,4-b]pyridin-4-yl)-3,4-dihydro-1H-isoquinolin-6-yl]-1-oxa-3,8-diazaspiro[4.5]decan-2-one]
The IC50 of the first is 1.7-fold higher: 123 nM for the first, 73 nM for the second.

Compared with `Cc1cc(N2Cc3cnc(N4CC5(CNCCO5)C4)cc3[C@@H](C)C2)c2cnn(C)c2n1` [Example 79, 2-[(5R)-7-(1,6-dimethylpyrazolo[3,4-b]pyridin-4-yl)-5-methyl-6,8-dihydro-5H-2,7-naphthyridin-3-yl]-5-oxa-2,8-diazaspiro[3.5]nonane], `Cc1cc(N2Cc3ccc(OC4CCNCC4)nc3[C@@H](C)C2)c2cnn(C)c2n1` [Example 64, (8S)-6-(1,6-dimethylpyrazolo[3,4-b]pyridin-4-yl)-8-methyl-2-(4-piperidyloxy)-7,8-dihydro-5H-1,6-naphthyridine] is 1.9-fold higher in IC50: 131 nM for the first, 249 nM for the second.

First: CC1CN(c2ccc3c(c2)[C@@H](C)CN(c2ccnc4c2cnn4C)C3)CCN1 (stereo partly drawn) [Example 15, (4R)-4-methyl-6-(3-methylpiperazin-1-yl)-2-(1-methylpyrazolo[3,4-b]pyridin-4-yl)-3,4-dihydro-1H-isoquinoline]
Second: C[C@H]1CN(c2ccnc3c2cnn3C)Cc2ccc(N3CCNC(CO)C3)cc21 (stereo partly drawn) [Example 49, [4-[(4R)-4-methyl-2-(1-methylpyrazolo[3,4-b]pyridin-4-yl)-3,4-dihydro-1H-isoquinolin-6-yl]piperazin-2-yl]methanol]
The IC50 of the first is 1.6-fold higher: 309 nM for the first, 199 nM for the second. The second is the more potent here.

Going from `C[C@H]1CN(c2ccnc3c2cnn3C)Cc2ccc(N3CCN(CCN(C)C)CC3)cc21` [Example 38, N,N-dimethyl-2-[4-[(4R)-4-methyl-2-(1-methylpyrazolo[3,4-b]pyridin-4-yl)-3,4-dihydro-1H-isoquinolin-6-yl]piperazin-1-yl]ethanamine] to `C[C@H]1CN(c2ccnc3c2cnn3C)Cc2ccc(N3CCC(O)(CN(C)C)CC3)cc21` [Example 13, 4-[(dimethylamino)methyl]-1-[(4R)-4-methyl-2-(1-methylpyrazolo[3,4-b]pyridin-4-yl)-3,4-dihydro-1H-isoquinolin-6-yl]piperidin-4-ol], the IC50 rises from 147 nM to 399 nM (2.7-fold).

Compared with `C[C@H]1CN(c2ccnc3c2cnn3C)Cc2ccc(N3CCN(S(=O)(=O)C4CCNC4)CC3)cc21` (stereo partly drawn) [Example 33, (4R)-4-methyl-2-(1-methylpyrazolo[3,4-b]pyridin-4-yl)-6-(4-pyrrolidin-3-ylsulfonylpiperazin-1-yl)-3,4-dihydro-1H-isoquinoline], `C[C@H]1CN(c2ccnc3c2cnn3C)Cc2ccc(N3CCC(N4CC[C@@H](N)[C@H](O)C4)CC3)cc21` [Example 29, trans-4-amino-1-[1-[(4R)-4-methyl-2-(1-methylpyrazolo[3,4-b]pyridin-4-yl)-3,4-dihydro-1H-isoquinolin-6-yl]-4-piperidyl]piperidin-3-ol] is 3.1-fold lower in IC50: 326 nM for the first, 106 nM for the second.
